According to patent US8017646B2, “Histamine H3-receptor ligands and their therapeutic application” (Bioprojet, priority 2005, dated 2011):
Structures can show the parent of a compound that is named as a salt. Where two headings read alike, the source gives them in different places.

Experiments:
[1] = molecular target: CYP2D6 (Homo sapiens, UniProt P10635); assay: Cytochrome inhibition, fluorometric assay, CYP2D6; format: biochemical
Experimental: (§1) The ability of drug in human to inhibit the catalytic activity of cytochrome P-450 isoforms was assayed using microtiter plate-based, fluorometric assays for the activities of the five human major CYP forms. Inhibition potential was determined in vitro after incubation of fluorescent model substrates over various incubation time with human recombinant cytochrome isoforms in the absence or in presence of increasing concentrations of test molecules (from 1 nM to 100 μM), in comparison with specific CYP isoform inhibitors. Data were expressed as quantitative inhibition parameters [inhibitor concentration that produces 50% inhibition (IC50 value)].
Incubation of drug was carried out at 37° C.±0.5° C. under agitation in the presence of human recombinant cytochrome P-450 isoforms and a NADPH generating system. The incubation conditions for each cytochrome isoform were as follow: […]

[2] = molecular target: CYP3A4 (Homo sapiens, UniProt P08684); assay: Cytochrome inhibition, fluorometric assay, CYP3A4; format: biochemical; conditions: human recombinant CYP3A4, substrate BFC; read-out: cytochrome inhibition (IC50, concentrations for 50% inhibition) CYP3A4
CYP3A4, sequence (P08684 whole entry, canonical isoform): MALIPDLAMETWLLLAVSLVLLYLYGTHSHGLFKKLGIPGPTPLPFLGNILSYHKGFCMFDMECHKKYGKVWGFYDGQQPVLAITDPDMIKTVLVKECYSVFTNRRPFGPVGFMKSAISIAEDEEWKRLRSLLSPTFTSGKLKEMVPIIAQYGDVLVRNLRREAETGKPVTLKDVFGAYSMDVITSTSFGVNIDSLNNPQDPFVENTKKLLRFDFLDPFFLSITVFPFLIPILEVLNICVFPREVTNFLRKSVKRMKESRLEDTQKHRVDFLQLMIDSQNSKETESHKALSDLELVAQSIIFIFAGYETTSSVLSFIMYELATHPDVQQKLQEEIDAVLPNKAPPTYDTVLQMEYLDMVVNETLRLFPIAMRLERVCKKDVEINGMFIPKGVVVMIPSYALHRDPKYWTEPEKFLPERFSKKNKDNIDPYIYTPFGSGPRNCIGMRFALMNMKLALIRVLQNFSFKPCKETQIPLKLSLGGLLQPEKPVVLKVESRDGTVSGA
Experimental: as §1, with “value)]. Incubation of drug was carried out at 37° C.±0.5° C. under agitation in the presence of human recombinant cytochrome P-450 isoforms and a NADPH generating system. The incubation conditions for each cytochrome isoform were as follow: [table]” for “value)].”

[3] = molecular target: human histamine H3 receptors (Homo sapiens, UniProt Q9Y5N1); assay: H3 binding ([125I]iodoproxyfan displacement); conditions: for Ki: membranes expressing human histamine H3 receptors, [125I]iodoproxyfan
human histamine H3 receptors, sequence (Q9Y5N1 whole entry): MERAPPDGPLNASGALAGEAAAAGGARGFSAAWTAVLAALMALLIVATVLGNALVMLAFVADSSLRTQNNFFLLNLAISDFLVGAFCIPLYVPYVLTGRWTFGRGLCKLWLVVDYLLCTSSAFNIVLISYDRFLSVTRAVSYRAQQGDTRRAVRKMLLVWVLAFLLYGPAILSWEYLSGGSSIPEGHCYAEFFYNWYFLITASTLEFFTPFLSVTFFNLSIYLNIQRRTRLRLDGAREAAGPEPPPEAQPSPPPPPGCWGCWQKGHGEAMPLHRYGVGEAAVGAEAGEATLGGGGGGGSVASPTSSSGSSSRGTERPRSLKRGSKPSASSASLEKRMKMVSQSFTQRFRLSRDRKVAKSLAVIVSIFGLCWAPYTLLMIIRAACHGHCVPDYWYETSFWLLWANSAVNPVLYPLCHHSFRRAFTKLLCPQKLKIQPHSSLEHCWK
Experimental: Membranes expressing human histamine H3 receptors were incubated 1 hour at room temperature in binding buffer containing 50 mM Na2HPO4/KH2PO4 pH 7.5 in a final volume of 200 μl. […] Amersham Pharmacia Biotech) concentrations ranged between 20 and 40 pM. Non-specific binding was determined in the presence of 1 μM Imetit. The reaction was stopped by rapid filtration through GF/B filters (pre-soaked for 2 hours with 0.3% polyethyleneimine) followed by 3 ice cold binding buffer washes. The filter-bound radioactivity was measured in a liquid scintillation counter with 50 μl of scintillation fluid.

[4] = human recombinant CYP2D6, substrate AMMC, read-out: cytochrome inhibition (IC50, concentrations for 50% inhibition) CYP2D6

CYP2D6, sequence (P10635 whole entry, canonical isoform): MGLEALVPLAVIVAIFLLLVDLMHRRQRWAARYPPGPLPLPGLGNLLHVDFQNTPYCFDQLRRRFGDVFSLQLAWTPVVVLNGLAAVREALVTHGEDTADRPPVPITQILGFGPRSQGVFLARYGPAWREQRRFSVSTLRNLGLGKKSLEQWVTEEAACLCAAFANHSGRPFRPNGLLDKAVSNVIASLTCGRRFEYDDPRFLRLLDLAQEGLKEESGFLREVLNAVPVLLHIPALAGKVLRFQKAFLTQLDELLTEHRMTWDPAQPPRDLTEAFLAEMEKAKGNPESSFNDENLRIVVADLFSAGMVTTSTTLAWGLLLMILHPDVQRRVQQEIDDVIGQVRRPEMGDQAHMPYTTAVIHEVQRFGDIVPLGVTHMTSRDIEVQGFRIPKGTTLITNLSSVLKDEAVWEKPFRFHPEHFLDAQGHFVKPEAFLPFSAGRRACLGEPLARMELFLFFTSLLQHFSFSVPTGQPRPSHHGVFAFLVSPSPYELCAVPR

Row | Compound | IC50 [1, 4] | IC50 [2] | melting point | Ki [3] | IC50 ([1]; comparative compound disclosed in WO 00/06254, read-out: cytochrome inhibition (IC50) CYP2D6) | Kd ([3]; radioligand at human H3 receptor membranes, read-out: Kd (hH3 binding))
1 | COc1ccc(CCCOCCCN2CCCC2)cc1OC [Example 1, 1-{3-[3-(3,4-dimethoxyphenyl)propoxy]propyl}pyrrolidine, oxalate] | > 10 µM | > 10 µM | – | – | – | –
2 | COc1ccc(/C=C/COCCCN2CCCCC2)cc1OC.O=C(O)C(=O)O [Example 2, trans-1-{3-[3-(3,4-dimethoxyphenyl)allyloxy]propyl}piperidine, oxalate] | > 10 µM | > 10 µM | 111 to 112 °C | – | – | –
3 | COc1ccc(CCCOCCCN2CCCCC2)cc1OC [Example 3, 1-{3-[3-(3,4-dimethoxyphenyl)propoxy]propyl}piperidine, oxalate] | > 10 µM | > 10 µM | – | – | – | –
4 | Cc1ccc(CCCOCCCN2CCCCC2)cc1 [Example 4, 1-{3-[3-(4-methylphenyl)propoxy]propyl}piperidine, oxalate] | > 10 µM | > 10 µM | – | – | – | –
5 | COc1cc(CCCOCCCN2CCCC2)ccc1F [Example 9, 1-{3-[3-(4-fluoro-3-methoxyphenyl)propoxy]propyl}pyrrolidine, oxalate] | > 100 µM | > 100 µM | – | 0.0017 µM | – | –
6 | C(=C\c1ccc2c(c1)OCCO2)/COCCCN1CCCCC1.O=C(O)C(=O)O [Example 13, 1-{3-[3-(2,3-dihydrobenzo[1,4]dioxin-6-yl)allyl]oxy}propyl)piperidine, oxalate] | > 10 µM | > 10 µM | – | – | – | –
7 | C(=C\c1ccc2c(c1)OCCO2)/COCCCN1CCCCC1.O=C(O)C(=O)O [Example 13] | – | – | 120 °C | – | – | –
8 | Ic1ccc(COCCCc2cnc[nH]2)cc1 [[^125]iodoproxyfan, reference compound] | – | – | – | – | – | 78 ± 6 pM
9 | Clc1ccc(CCCOCCCN2CCCCC2)cc1 [reference compound] | – | – | – | – | 0.059 µM | –

More lines, main results first:

Row | IC50 [1, 4] | IC50 [2] | melting point | Ki [3] | IC50 ([1]; comparative compound disclosed in WO 00/06254, read-out: cytochrome inhibition (IC50) CYP2D6) | Compound | Kd ([3]; radioligand at human H3 receptor membranes, read-out: Kd (hH3 binding))
10 | > 1 µM | > 10 µM | – | – | – | c1ccc2cc(CCCOCCCN3CCCCC3)ccc2c1 [Example 5, 1-{3-[3-(2-naphtyl)propoxy]propyl}piperidine, oxalate] | –
11 | > 1 µM | > 10 µM | – | – | – | COc1cc(CCCOCCCN2CCCCC2)ccc1O [Example 6, 1-{3-[3-(4-hydroxy-3-methoxyphenyl)propoxy]propyl}piperidine, oxalate] | –
12 | 81 µM | > 100 µM | 106 °C | – | – | Fc1ccc(CCCOCCCN2CCCC2)cc1.O=C(O)C(=O)O [Example 7, 1-{3-[3-(4-fluorophenyl)propoxy]propyl}pyrrolidine, oxalate] | –
13 | > 1 µM | > 10 µM | – | – | – | COc1cc(/C=C/COCCCN2CCCC2)ccc1F [Example 8, trans-1-{3-[3-(4-fluoro-3-methoxyphenyl)allyloxy]propyl}pyrrolidine, oxalate] | –
14 | > 1 µM | > 10 µM | – | – | – | Cc1cc(CCCOCCCN2CCCC2)ccc1F [Example 10, 1-{3-[3-(4-fluoro-3-methylphenyl)propoxy]propyl}pyrrolidine, oxalate] | –
15 | 18 µM | 23 µM | – | 0.00038 µM | – | COc1cc(F)ccc1CCCOCCCN1CCCC1 [Example 11, 1-{3-[3-(4-fluoro-2-methoxyphenyl)propoxy]propyl}pyrrolidine, oxalate] | –
16 | > 1 µM | > 10 µM | – | – | – | C(=C\c1ccc2occc2c1)/COCCCN1CCCC1 [Example 12, trans-1-{3-[3-(benzofuran-5-yl)allyloxy]propyl}pyrrolidine, oxalate] | –
17 | 4.4 µM | 10.6 µM | – | 0.0047 µM | – | C(=C\c1ccc2c(c1)OCO2)/COCCCN1CCCC1 [Example 14, trans-1-{3-[3-(benzodioxol-5-yl)allyloxy]propyl}pyrrolidine, oxalate] | –
